# Read-outs that look alike come from different tables or passages of the source.
# Experiments:
# [1] = test system: mycobacterial serine protease (Seva TB ES-31); format: biochemical, Mycobacterium tuberculosis H37Ra
# M. tb H37Ra bacilli = test: microbe, parasite or virus in culture; format: cell-based, Mycobacterium tuberculosis H37Ra
# [2] = Mycobacterium tuberculosis, H37RA, read-out: % Inhibition on culture
Compound,Inhibition (%) [1] [%],Residual activity (%) [1] [%],"serine protease enzyme activity, effect in words [1]",% Inhibition of Serine protease [1] [%],Effect on H37Ra culture (LJ slant/Sautons' medium) (M. tb H37Ra bacilli),"bacillary growth on LJ slant and in Sautons' broth, effect in words (M. tb H37Ra bacilli)",also measured
"c1cnc2c(c1)ccc1cccnc12 [1,10 Phenanthroline]",78,22.4 ± 0.47,inhibited,–,–,–,inhibition at 10 µM (M. tb H37Ra bacilli; [2]): 81%
"O=c1oc(Cl)c(Cl)c2ccccc12 [3,4-Dichloroisocoumarin]",–,–,inhibited,–,–,–,Inhibition (%) ([1]; 10 µM): 90%; Residual activity (%) ([1]; 10 µM): 9.84 ± 0.07%; inhibition at 0.2 µM (M. tb H37Ra bacilli; [2]): 85%
"CC[C@@H](CO)NCCN[C@@H](CC)CO [EMB, ethambutol]",–,–,inhibited,70,No Growth,inhibition of bacillary growth,–
"O=C(O)CN(CCN(CC(=O)O)CC(=O)O)CC(=O)O [Ethylene diamine tetracetic acid (EDTA), Ethylene diamine tetracetic acid]",65,35.3 ± 0.89,inhibited,–,–,–,–
"NNC(=O)c1ccncc1 [INH, isoniazid]",–,–,inhibited,85,No Growth,inhibition of bacillary growth,inhibition of serine protease activity [1]: 85%
NC(=O)c1cnccn1 [PZA],–,–,–,0,–,–,–
Cl.NCCc1ccc(S(=O)(=O)F)cc1 [Pefabloc],92,7.56 ± 0.07,inhibited,–,–,–,% Inhibition on culture (M. tb H37Ra bacilli; 10 µM): 88%
"O=S(=O)(F)Cc1ccccc1 [Phenyl methyl sulphonyl fluoride (PMSF), Phenyl methyl sulphonyl fluoride]",80,19.6 ± 0.2,inhibited,–,–,–,% Inhibition on culture (M. tb H37Ra bacilli; 20 µM): 72%
"[H]/N=C(/N)N[C@H]1[C@H](O)[C@@H](O)[C@H](O[C@@H]2O[C@@H](C)[C@](O)(C=O)[C@H]2O[C@@H]2O[C@@H](CO)[C@H](O)[C@@H](O)[C@@H]2NC)[C@@H](N/C(N)=N\[H])[C@@H]1O [SM, streptomycin]",–,–,inhibited,30,No Growth,inhibition of bacillary growth,–

# From US20090011442A1, “TB diagnostics based on mycobacterium tuberculosis excretory secretory antigens and their specific immunoglobulins” (priority 2007, published 2009)
